Reference: publication PMC2215335 (The Journal of General Physiology, 1977)
Entries after “also recorded” stand apart in the source; their conditions may differ. Blank lines part the entries; values can stand above or below the molecule they belong to.

How the values were obtained:
[1] = tested on: membrane chloride conductance (GCl), rat diaphragm; assay: Inhibition of membrane chloride conductance; assay type: cell-based; details: for Relative potency: potency of 1 for a compound having a Ki of 1 x 10^-2 M; for Reduction of GCl: 10-s M (so in the source)
[2] = tested on: residual conductance in chloride-free solution (largely attributable to K+), rat diaphragm; assay: Residual conductance in chloride-free solution; assay type: cell-based
[3] = tested on: red blood cell (RBC) surface charge; assay: Electrophoretic mobility of erythrocytes; set-up: species or system human; details: concentrations 0.1 to 100 times the Ki
[4] = tested on: membrane anion permeability, rat diaphragm; assay: Anion permeability sequence, bi-ionic potential shift measurements; assay type: cell-based
[5] = tested on: Cl- current, rat diaphragm fibers; assay: Current-voltage relationships of diaphragm fibers; assay type: cell-based; details: 2 x 10^-5 M 9-AC, 20 ms after onset of hyperpolarizing pulses, all voltage levels
[6] = tested on: membrane anion conductances (GCl, GBr, GNO3, GI), rat diaphragm; assay: Anion conductance sequence in rat diaphragm; assay type: cell-based
[7] = tested on: rat diaphragm fibers; assay: Resting membrane potential of diaphragm fibers; assay type: cell-based; details: fibers exposed to 2 x 10-s M 9-AC (so in the source); SD
[8] = tested on: membrane resistance, rat diaphragm; assay: Membrane resistance of diaphragm in vitro during perfusion and wash; assay type: cell-based

Molecule: Cc1cc(C)c(C)c(C(=O)O)c1C [2,3,5,6-Tetramethyl BA]
Relative potency [1]: 16.7
Effects on residual conductances (GK) [2]: 0

Molecule: Cc1cc(C(=O)O)cc(C)c1[N+](=O)[O-] [3,5-Dimethyl-4-nitro BA]
Relative potency [1]: 3.6
Effects on residual conductances (GK) [2]: 0

Permeability sequence inversion ([4]; increasing analog concentration): same sequence inversions were observed
Molecule: Cc1cc(C)c(C(=O)O)cc1C [2,4,5-Trimethyl benzoic acid]
Red blood cell (RBC) electrophoretic mobility [3]: No change
Relative potency [1]: 152
Effects on residual conductances (GK) [2]: +

Molecule: O=C(O)c1c(Cl)ccc(Cl)c1[N+](=O)[O-] [3,6-Dichloro-2-nitro BA]
Relative potency [1]: 6.0
Effects on residual conductances (GK) [2]: 0

Molecule: Cc1c(C)c(C(=O)O)c(C)c(C)c1C(=O)O [2,3,5,6-Tetramethyl-4-COOH-BA]
Relative potency [1]: < 0.1
Effect on GCl (in words) ([1]; rat diaphragm): without detectable effect on Gel
Effects on residual conductances (GK) [2]: 0

Molecule: Cc1cc(C(=O)O)cc(C)c1N [3,5-Dimethyl-4-amino BA]
Relative potency [1]: < 0.3

Molecule: O=C(O)c1c(Cl)cccc1Cl [2,6-Dichloro BA]
Relative potency [1]: 5.0
Effects on residual conductances (GK) [2]: 0

Molecule: O=C(O)COc1ccc(Cl)cc1Cl [2,4-Dichloro phenoxyacetic acid]
Relative potency [1]: 5.0

Molecule: Cc1ccc(C(=O)O)cc1C [3,4-Dimethyl BA]
Relative potency [1]: 5.0
Effects on residual conductances (GK) [2]: 0

Molecule: Cc1ccc(C)c(C(=O)O)c1 [2,5-Dimethyl BA]
Relative potency [1]: 32
Effects on residual conductances (GK) [2]: 0

Molecule: Cc1cc(C)cc(C(=O)O)c1 [3,5-Dimethyl BA]
Relative potency [1]: 6.7
Effects on residual conductances (GK) [2]: 0

Molecule: O=C(O)c1ccccc1 [Benzoic acid (BA), Benzoic acid]
Effects on residual conductances (GK) [2]: 0

Molecule: O=C(O)c1cc(Cl)cc(Cl)c1 [3,5-Dichloro BA]
Relative potency [1]: 40
Effects on residual conductances (GK) [2]: 0

Molecule: O=C(O)c1c(Cl)ccc(Cl)c1Cl [2,3,6-Trichloro BA]
Relative potency [1]: 10.5
Effects on residual conductances (GK) [2]: 0

Molecule: O=C(O)c1cc(Cl)ccc1Cl [2,5-Dichloro BA]
Relative potency [1]: 33.3
Effects on residual conductances (GK) [2]: 0

Molecule: Cc1ccc(C(=O)O)c(C)c1 [2,4-Dimethyl BA]
Relative potency [1]: 6.2
Effects on residual conductances (GK) [2]: +

Molecule: Cc1cc(C(=O)O)cc(C)c1O [3,5-Dimethyl-4-hydroxy BA]
Relative potency [1]: < 0.1
Effects on residual conductances (GK) [2]: 0

Molecule: Cc1ccc(C)c(S(=O)(=O)O)c1 [2,5-Dimethyl benzene SOsH]
Relative potency [1]: < 0.3
Effects on residual conductances (GK) [2]: 0

Molecule: Cc1cc(C)c(C(=O)O)c(C)c1 [2,4,6-Trimethyl BA]
Relative potency [1]: 2.5
Effects on residual conductances (GK) [2]: 0

Molecule: O=C(O)c1c(Cl)c(Cl)cc(Cl)c1Cl [2,3,5,6-Tetrachloro BA]
Relative potency [1]: 47
Effects on residual conductances (GK) [2]: +

Molecule: 3,~-Dichloro-2-amino BA
Relative potency [1]: 76
Effects on residual conductances (GK) [2]: +

Molecule: O=C(O)c1c2ccccc2cc2ccccc12 [9-AC, anthracene-9-COOH]
Early I-V relationships relative to control values [5]: about 30 % of control
Anion conductance sequence ([6]; 8 x 10^-6 M 9-AC (table prints 8 x 10-e M)): CI>I>NO3>Br
Change of GI ([6]; 9-AC at 5 x 10^-5 M): appeared increased relative to control values
Reduction of GCl ([6]; 9-AC at 5 x 10^-5 M): > 90%
Change of GBr ([6]; 9-AC at 8 x 10^-6 M): changed little
Change of GI ([6]; 9-AC at 8 x 10^-6 M): appeared to increase
Reduction of GCl ([6]; 9-AC at 8 x 10^-6 M): approximately 50%
Effect on GI at concentrations reducing GCl by >90% ([6]; 9-AC concentrations reducing GCl by more than 90 percent): slight augmentation of G(I); also recorded: slight augmentation of GI
Average resting membrane potential (RMP) [7]: 68.3 ± 3.8 mV
Red blood cell (RBC) electrophoretic mobility [3]: No change
Time for increase in membrane resistance to reach new steady value ([8]; 10^-5 M 9-AC in Ringer's): ≤ 10 min
Membrane resistance in chloride-free Ringer's ([8]; methylsulfate-substituted chloride-free Ringer's, same concentration (10^-5 M)): unaffected
Time for membrane resistance to return to near control levels ([8]; reperfusion with normal Ringer's after 10^-5 M 9-AC): 30 to 60 min
Reduction of GCl ([1]; depolarizing pulses): 54%
Reduction of GCl ([1]; hyperpolarizing pulses): 58%
Percent reduction in observed GCl at varied external Ca2+ ([1]; 10^-5 M 9-AC, external [Ca2+] 2 mM, 10 mM and 20 mM): the same
Relative potency [1]: 909
Effects on residual conductances (GK) [2]: 0
Relative permeability I- vs Cl- ([4]; 5 x 10^-5 M 9-AC, 30 min): more permeable to I- than to el-

Molecule: O=C(O)c1ccc(Cl)c(Cl)c1 [3,4-Dichloro BA]
Relative potency [1]: 38
Effects on residual conductances (GK) [2]: 0

Molecule: O=C(O)c1c(Cl)c(Cl)c(Cl)c(Cl)c1Cl [Pentachloro BA]
Relative potency [1]: 125
Effects on residual conductances (GK) [2]: +

Molecule: O=C(O)c1cc(Cl)c(Cl)cc1C(=O)O [4,5-Dichioro-2-COOH BA]
Relative potency [1]: 0.63
Effects on residual conductances (GK) [2]: 0
